Key:
[1] = target: T1, FGFR4 kinase (Homo sapiens (Human), UniProt P22455); assay: biochemical
[2] = PK analysis of rats; format: in vivo; settings: SD rats, p.o. (10 mg/kg)
[3] = target: T1, FGFR4 kinase
[4] = tested on: Hep3B; assay: Pharmacodynamic in vivo, Hep3B model tumor growth inhibition; design: species or system NOD-SCID mice
Description: The Hep3B cell line was purchased from ATCC; MEM cell culture medium, fetal bovine serum, and trypsin were purchased from Gibco; cell culture flasks were purchased from Greiner; and disposable Cell Counting Plate and taittinger Blue Solution Purchased from Bio-Rad. The disposable sterile syringe was purchased from Changzhou Jinlong Medical Plastic Instrument Co., Ltd, eye surgical scissors and eye surgical forceps were purchased from Shanghai Medical Instrument (Group) Co., Ltd. Surgical Instrument Factory, and 6-8 week old female NOD-SCID mice were purchased from Vitalivar.
a. One strain of Hep3B cells was taken out from the cell bank and MEM medium (MEM+10% FBS+1% PS) was used to recover the cells. The resuscitated cells were placed in a cell culture flask (the wall the flask was marked with the cell type, date, cultivator's name), and the cell culture flask was placed in a CO2 incubator (the temperature of the incubator was 37° C. and the CO2 concentration of the incubator was 5%);
b. When the cells covered about 90% of the bottom of the culture flask, passage was conducted. the cells were continued to cultivate in a CO2 incubator after passage. The above process was repeated until the number of the cell satisfied the requirements of pharmacodynamic in vivo;
c. The cultured cells were collected and counted using a BIO-Rad TC20 cell counter. According to the counting results, the cultured cells were resuspended with PBS and matrix gel (1:1) to obtain a cell suspension (density 5×10^7/ml), and the cell suspension was placed in an ice box for later use.
a. The cells were mixed well before seeding, and 0.5 ml of cell suspension was taken with a 1 ml syringe and bubbles in the cell suspension were removed. The syringe with the cell suspension was place on an ice pack for later use.
b. The NOD-SCID mice were set with the left hand, and the skin on the right back of the mice was disinfected with 75% alcohol. The inoculation was beginning after 30 seconds.
c. During inoculation, 1 mL syringe was on the right hand, and the cell suspension of Hep3B was inoculated subcutaneously into the right shoulder of the right back of the mouse at 0.1 mL/mouse. At inoculation interval, the syringe was placed on an ice pack and the mice were inoculated sequentially.
d. According to the tumor growth, the tumor was measured and the tumor size was calculated on the 12-15 days after inoculation.
Tumor volume calculation: tumor volume (mm^3)=length (mm)×width (mm)×width (mm)/2
e. When the tumors grew to an average volume of 100-150 mm^3, the mice were randomly divided into two groups according to tumor size and the weight of the mouse. […]
f. […] Tumors were measured and the mice were weighed twice a week after administration. […]

[5] = PK/PD of NOD-SCID mouse (drug concentration in blood and in tumors); format: in vivo; settings: for AUC(0-inf) / Cmax / Tmax / half-life / AUC(0-t) / concentration at 4 h / concentration at 6 h: NOD-SCID, mouse, po, 50 mg/kg, p.o. (50 mg/kg); for AUC(0-inf) / Cmax / Tmax / half-life / AUC(0-t): plasma; for AUC(0-t): read-out: AUC0-6 h; for concentration at 4 h / concentration at 6 h: tumor
Experimental: This experiment conducted when the pharmacological experiment in vivo was performed by gavage administration, wherein, the blood samples and tumor samples were taken at different time points to detect drug concentration in blood and drug concentrations in tumors.
(1) Mode of administration: gavage administration;
(2) Dosage: 50 mg/kg in the gavage administration;
Three mice were sampled at each sampling point;
(4) Blood sample collection: 200 μL of orbital blood was collected at sampling time point for each blood sample. After anticoagulation with heparin, the blood was centrifuged at 5500 rpm for 10 mins. 60 μL of the supernatant was taken and put it into the refrigerator at −80° C. for waiting for testing.
Tumour sample collection: 200-300 mg of each tumor tissue was taken. The tumor weight was marked, quickly freezed in liquid nitrogen and placed into a refrigerator at −80° C. for waiting for testing.
Tumour sample processing: pure water was added into the tumor sample according to a ratio of […] between the weight of the tumor sample and the volume of pure water and then it was homogenized. The homogenate was stored at −90° C. to −60° C. until the sample was analyzed. After 5 μL of acetonitrile/water (v/v=1:1) was added into 50 μL of tumor sample homogenate, 200 μL of acetonitrile (containing Dexamethasone 100 ng/ml as internal standard, or containing Verapamil 2 ng/ml as internal standard) was added. After protein precipitation, the resulting mixture was vortexed for 2 mins at 4° C. with 4600 g, and then centrifuged for 15 mins to obtain the supernatant. 100 μL of the supernatant was taken and added into 200 μL of deionized water. 5500 LC/MS/MS analyser was used for sample injection and analysis, after vortexing for homogeneity. The conditions for chromatographic separation and mass spectrometric analysis were as follows: […]

T1 sequence (P22455 22-802): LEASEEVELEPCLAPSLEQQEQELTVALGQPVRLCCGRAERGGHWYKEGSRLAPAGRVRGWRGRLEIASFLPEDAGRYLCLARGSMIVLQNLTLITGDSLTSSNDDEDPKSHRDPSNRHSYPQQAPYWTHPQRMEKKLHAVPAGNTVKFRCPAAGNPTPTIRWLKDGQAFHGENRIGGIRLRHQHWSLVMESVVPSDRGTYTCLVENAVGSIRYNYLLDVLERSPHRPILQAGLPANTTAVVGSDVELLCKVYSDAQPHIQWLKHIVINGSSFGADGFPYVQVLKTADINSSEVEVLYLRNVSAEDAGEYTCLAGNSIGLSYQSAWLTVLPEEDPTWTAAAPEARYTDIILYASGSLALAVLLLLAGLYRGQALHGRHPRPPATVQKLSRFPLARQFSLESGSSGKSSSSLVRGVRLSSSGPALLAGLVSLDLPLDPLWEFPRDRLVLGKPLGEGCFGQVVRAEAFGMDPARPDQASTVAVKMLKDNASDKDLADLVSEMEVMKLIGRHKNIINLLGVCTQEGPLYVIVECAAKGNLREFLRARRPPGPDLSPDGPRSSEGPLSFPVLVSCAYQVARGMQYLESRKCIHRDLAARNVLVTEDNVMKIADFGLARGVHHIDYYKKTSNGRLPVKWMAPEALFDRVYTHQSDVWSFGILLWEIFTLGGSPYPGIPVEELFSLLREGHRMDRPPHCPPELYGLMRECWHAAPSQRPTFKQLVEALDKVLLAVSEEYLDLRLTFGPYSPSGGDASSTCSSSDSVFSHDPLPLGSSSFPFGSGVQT

SMILES: CSC[C@@H](C)Nc1cc(NC(=O)N2CCCc3cc(CN4CCN(C)CC4=O)c(C=O)nc32)ncc1C#N [Compound 4, (R)—N-(5-Cyano-4-((1-(methylthio)propan-2-yl)amino)pyridin-2-yl)-7-formyl-6-((4-methyl-2-oxopiperazin-1-yl)methyl)-3,4-dihydro-1,8-naphthyridine-1 (2H)-carboxamide]
- IC50 [1]: 1.4 nM
- exposure amount AUC0-24 h and maximum drug concentration in blood Cmax compared with the reference compound [2]: significantly higher than the reference compound
- AUC(0-t) ([2]; rat, plasma, po, read-out: Curve area AUC0-24 h): 4670 ng·h/mL
- Cmax ([2]; rat, plasma, po, read-out: Drug concentration in blood Cmax): 1450 ng/mL
- inhibitory effect on FGFR4 compared with the reference compound [3]: better inhibitory effect on FGFR4 than the reference compound
- antitumor effect [4]: excellent antitumor effect
- effect of 15 mg/kg BID compared with 60 mg/kg QD of the reference compound [4]: equivalent
- TGI % ([4]; 15 mg/kg BID, gavage): 96.7%
- content in tumor tissue relative to the reference compound ([5]; Hep3B model, 4 h or 6 h): more than 15 times
- AUC(0-inf) ([5]; Hep3B model): 3360 ng·h/mL
- Cmax ([5]; Hep3B model): 1020 ng/mL
- Tmax ([5]; Hep3B model): 2 h
- half-life ([5]; Hep3B model): 1.48 h
- AUC(0-t) ([5]; Hep3B model): 3020 ng·h/mL
- AUC(0-inf) ([5]; SNU878 model): 4260 ng·h/mL
- Cmax ([5]; SNU878 model): 1230 ng/mL
- Tmax ([5]; SNU878 model): 1 h
- half-life ([5]; SNU878 model): 2.3 h
- AUC(0-t) ([5]; SNU878 model): 3530 ng·h/mL
- concentration at 4 h ([5]; Hep3B model): 1210 ng/g
- concentration at 6 h ([5]; Hep3B model, 6 h): 673 ng/g
- concentration at 4 h ([5]; SNU878 model): 2340 ng/g
- concentration at 6 h ([5]; SNU878 model, 6 h): 1950 ng/g
- content in tumor tissue relative to the reference compound ([5]; SNU878 model, 6 h): about twice
